US9067926B2, “Fluoromethyl-5,6-dihydro-4H-[1,3]OXAZINES” (F. Hoffmann-La Roche AG, priority 2012, dated 2015)

Assays:
CYP3A4 = target: T1, CYP3A4 (Homo sapiens, UniProt P08684); assay: CYP inhibition assay, CYP3A4; type: in vitro ADME; conditions: pooled human liver microsomes, midazolam substrate; read-out: CYP IC50 3A4
T1 construct: 0.2 mg/ml pooled human liver microsomes; from tissue; host or cells: pooled human liver microsomes
Method: (§1) Inhibition of cytochromes P450 (CYPs) 2C9, 2D6 and 3A4 was assessed using human liver microsomes and CYP-selective substrate metabolism reactions. […] Quenched incubates were stored at −20° C. for at least 1 hour before centrifugation (20,000×g, 20 minutes). Supernatants were removed and diluted 1:1 with water prior to analysis using a RapidFire sample injector system and API4000 mass spectrometer. Peak areas for substrate, metabolite and stable-labelled metabolite standard were determined using MS/MS. The peak area ratios between the metabolite generated by the enzymatic reaction and the internal standard were used in subsequent calculations. The percentage of (DMSO) control activity was calculated for each incubate and IC50 values estimated by non-linear regression. Sulfaphenazole, quinidine or ketoconazole were tested in each CYP2C9, CYP2D6 or CYP3A4 inhibition experiment, respectively, to ensure assay sensitivity and reproducibility.

P-gp (human MDR1) = target: T2, P-gp (human MDR1) (Homo sapiens, UniProt P08183); assay: P-gp (P-Glycoprotein) bidirectional transcellular transport assay, LLC-PK1 and L-MDR1 cells; type: in vitro ADME; conditions: LLC-PK1 cells expressing human MDR1, PappBA/PappAB
T2 construct: host or cells: LLC-PK1 (porcine kidney epithelial cells)
T2 sequence (P08183 whole entry): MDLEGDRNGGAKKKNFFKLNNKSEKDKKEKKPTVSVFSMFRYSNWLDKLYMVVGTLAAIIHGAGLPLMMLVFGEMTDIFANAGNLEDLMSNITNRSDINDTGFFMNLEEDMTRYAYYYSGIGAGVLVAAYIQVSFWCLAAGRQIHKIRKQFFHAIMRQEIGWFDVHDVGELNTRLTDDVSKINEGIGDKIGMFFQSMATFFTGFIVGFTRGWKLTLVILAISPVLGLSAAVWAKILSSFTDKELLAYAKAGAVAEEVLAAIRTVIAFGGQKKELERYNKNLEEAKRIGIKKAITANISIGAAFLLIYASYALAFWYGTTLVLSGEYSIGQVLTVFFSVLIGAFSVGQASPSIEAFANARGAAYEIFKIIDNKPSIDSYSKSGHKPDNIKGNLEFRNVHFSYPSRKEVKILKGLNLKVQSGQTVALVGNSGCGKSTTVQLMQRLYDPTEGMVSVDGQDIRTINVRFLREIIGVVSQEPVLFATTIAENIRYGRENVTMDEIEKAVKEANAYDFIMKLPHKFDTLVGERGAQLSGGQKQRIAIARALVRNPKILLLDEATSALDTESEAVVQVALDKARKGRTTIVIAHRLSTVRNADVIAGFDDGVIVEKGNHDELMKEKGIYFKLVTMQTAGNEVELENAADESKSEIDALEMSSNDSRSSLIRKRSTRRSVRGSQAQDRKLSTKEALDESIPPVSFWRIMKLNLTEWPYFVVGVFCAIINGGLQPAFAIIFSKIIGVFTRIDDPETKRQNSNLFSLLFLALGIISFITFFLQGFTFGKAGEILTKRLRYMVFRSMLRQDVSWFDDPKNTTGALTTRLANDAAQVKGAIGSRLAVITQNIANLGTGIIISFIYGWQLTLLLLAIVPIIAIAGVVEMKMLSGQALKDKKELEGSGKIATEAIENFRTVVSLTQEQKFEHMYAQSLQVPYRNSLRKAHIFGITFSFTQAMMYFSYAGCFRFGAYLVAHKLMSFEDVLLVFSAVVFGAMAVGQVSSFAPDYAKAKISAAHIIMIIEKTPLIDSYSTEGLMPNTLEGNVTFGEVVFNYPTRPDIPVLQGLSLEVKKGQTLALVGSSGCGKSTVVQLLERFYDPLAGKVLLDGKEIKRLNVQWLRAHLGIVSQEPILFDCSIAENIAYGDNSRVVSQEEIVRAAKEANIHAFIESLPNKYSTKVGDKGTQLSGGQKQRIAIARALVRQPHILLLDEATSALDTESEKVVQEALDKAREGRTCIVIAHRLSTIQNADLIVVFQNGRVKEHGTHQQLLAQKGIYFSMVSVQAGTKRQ
Method: P-gp (P-Glycoprotein) Assay
Cell Lines and Vesicles Used for Transport Experiments
The MDR1 (human multidrug resistance protein 1) transfected cell lines were obtained from Dr. A. Schinkel, The Netherlands Cancer Institute (Amsterdam, The Netherlands). All cell lines were cultured on permeable inserts (Costar, 0.33 cm^2 area, pore size 3.0 μm, low density) at 4.5·10^5 cells/cm^2. Transport measurements were performed at day 4 after seeding. Tightness of the cell monolayer was controlled via the permeability of the extracellular marker lucifer yellow (10 μM).
In Vitro Transport Experiments
Bidirectional transcellular transport using LLC-PK1 and L-MDR1 LLC-PK1 cells exogenously expressing the human MDR1)
The method used for transport experiments were performed on a TECAN automated liquid handling system. Briefly, medium was removed from all compartments and the medium of receiver side was replaced with culture medium. The trans-cellular transport measurements were initiated by adding the substrate together with extracellular marker lucifer yellow to the donor side. Inhibitors were added to both sides (1 μM elacridar). […] The plates were incubated at 37° C. and 5% CO2 in a Liconic incubator. Samples were taken from the donor and the opposite (acceptor) side after 2 hours incubation. Concentrations of substrate in both compartments were determined by scintillation counting (digoxin) or by LC-MS/MS. […] In each experiment 3 different inserts were used for each condition and a mean was calculated.
Bidirectional transcellular transport using LLC-PK1 and L-MDR1 cells
For the transcellular transport, the following equation was used for data evaluation: […]
Where Papp, A, C0, and dQ/dt represent the apparent permeability, the filter surface area, the initial concentration, and the amount transported per time period, respectively.
Transport efflux ratios (ER) were calculated as follows: […]
Where PappBA is the permeability value in the basolateral-to-apical direction, and PappAB the permeability value in the apical-to-basolateral direction. Papp were not corrected for flux of the extracellular marker lucifer yellow, which was used to assess the quality of the cell mono layers.

Aβ40 in brain = assay: In vivo inhibition of Aβ40 in brain of wild-type mice; conditions: Mus musculus, po; 10 mg/kg p.o., brain Aβ40 after 4 h, female C57Bl/6J mice; read-out: in vivo effect, Percentage of control @ 10 mg/kg p.o
Method: In Vivo Experiments. […] The test compound was dissolved in 5% EtOH, 10% Solutol and was applied per os at 10 ml/kg. After 4 h the animals were sacrificed and brain and plasma were collected. The brain was cut into halves and immediately frozen on dry ice. Brain was used for measurement of Aβ40 and plasma was used for determination of compound exposure. […] Brain tissue was homogenized in 2% DEA buffer in a Roche […] (20'', 4000 rpm) and subsequently centrifuged for 1 h at 100'000 g. DEA was reduced to 0.2% in 50 mM NaCl and one half of the DEA lysate was passed over an Oasis Solid Phase extraction plate (Waters; Cat.Nr. 186000679) which had been activated with MeOH and equilibrated in dH2O (1 ml each). After washes in 10% and 30% MeOH (1 ml each) the AP-peptides were eluted in 0.8 ml 2% NH4OH in 90% MeOH. […] Aβ40 was determined by an AlphaLISA assay (Perkin Elmer). In a white 96well half-area microplate (Perkin Elmer Cat.Nr. 6005561), 20 μl of the reconstituted sample were mixed with 5 μl biotinylated BAP-24 (specific for C-terminus of Aβ40 (Brockhaus, M.; Grunberg, J.; Rohrig, S.; Loetscher, H.; Wittenburg, N.; Baumeister, R.; Jacobsen, […]. Caspase-mediated cleavage is not required for the activity of presenilins in amyloidogenesis and NOTCH signaling. […] The mix was incubated for 1 h at RT in the dark. Then 20 μl Streptavin-coated Donor Beads (Perkin Elmer Cat. Nr. 6760002, final dilution 1:125) were added and this final mix was incubated in the dark for another 30 min at r.t. before RFU was measured in an AlphaScreen Reader(Perkin Elmer Envision 2104).

CYP2D6 = target: T3, CYP2D6 (Homo sapiens, UniProt P10635); assay: CYP inhibition assay, CYP2D6; type: in vitro ADME; conditions: pooled human liver microsomes, dextromethorphan substrate; read-out: CYP IC50 2D6
T3 construct: 0.2 mg/ml pooled human liver microsomes; from tissue; host or cells: pooled human liver microsomes
T3 sequence (P10635 whole entry): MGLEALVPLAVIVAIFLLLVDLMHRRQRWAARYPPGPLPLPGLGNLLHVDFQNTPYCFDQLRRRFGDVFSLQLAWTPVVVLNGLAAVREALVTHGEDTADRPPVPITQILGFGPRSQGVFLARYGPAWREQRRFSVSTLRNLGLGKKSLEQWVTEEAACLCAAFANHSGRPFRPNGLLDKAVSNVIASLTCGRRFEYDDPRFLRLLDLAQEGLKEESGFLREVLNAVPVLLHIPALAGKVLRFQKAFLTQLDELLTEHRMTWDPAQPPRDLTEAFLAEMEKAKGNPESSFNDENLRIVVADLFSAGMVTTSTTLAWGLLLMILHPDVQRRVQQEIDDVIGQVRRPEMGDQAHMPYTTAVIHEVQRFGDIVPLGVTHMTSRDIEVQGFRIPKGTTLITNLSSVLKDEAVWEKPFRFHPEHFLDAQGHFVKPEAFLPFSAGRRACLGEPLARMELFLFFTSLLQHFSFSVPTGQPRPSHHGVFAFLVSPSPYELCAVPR
Method: as §1

hERG = hERG (Homo sapiens, UniProt Q12809); assay: hERG current measurement (automated patch clamp); type: cell-based
hERG, sequence (Q12809 whole entry): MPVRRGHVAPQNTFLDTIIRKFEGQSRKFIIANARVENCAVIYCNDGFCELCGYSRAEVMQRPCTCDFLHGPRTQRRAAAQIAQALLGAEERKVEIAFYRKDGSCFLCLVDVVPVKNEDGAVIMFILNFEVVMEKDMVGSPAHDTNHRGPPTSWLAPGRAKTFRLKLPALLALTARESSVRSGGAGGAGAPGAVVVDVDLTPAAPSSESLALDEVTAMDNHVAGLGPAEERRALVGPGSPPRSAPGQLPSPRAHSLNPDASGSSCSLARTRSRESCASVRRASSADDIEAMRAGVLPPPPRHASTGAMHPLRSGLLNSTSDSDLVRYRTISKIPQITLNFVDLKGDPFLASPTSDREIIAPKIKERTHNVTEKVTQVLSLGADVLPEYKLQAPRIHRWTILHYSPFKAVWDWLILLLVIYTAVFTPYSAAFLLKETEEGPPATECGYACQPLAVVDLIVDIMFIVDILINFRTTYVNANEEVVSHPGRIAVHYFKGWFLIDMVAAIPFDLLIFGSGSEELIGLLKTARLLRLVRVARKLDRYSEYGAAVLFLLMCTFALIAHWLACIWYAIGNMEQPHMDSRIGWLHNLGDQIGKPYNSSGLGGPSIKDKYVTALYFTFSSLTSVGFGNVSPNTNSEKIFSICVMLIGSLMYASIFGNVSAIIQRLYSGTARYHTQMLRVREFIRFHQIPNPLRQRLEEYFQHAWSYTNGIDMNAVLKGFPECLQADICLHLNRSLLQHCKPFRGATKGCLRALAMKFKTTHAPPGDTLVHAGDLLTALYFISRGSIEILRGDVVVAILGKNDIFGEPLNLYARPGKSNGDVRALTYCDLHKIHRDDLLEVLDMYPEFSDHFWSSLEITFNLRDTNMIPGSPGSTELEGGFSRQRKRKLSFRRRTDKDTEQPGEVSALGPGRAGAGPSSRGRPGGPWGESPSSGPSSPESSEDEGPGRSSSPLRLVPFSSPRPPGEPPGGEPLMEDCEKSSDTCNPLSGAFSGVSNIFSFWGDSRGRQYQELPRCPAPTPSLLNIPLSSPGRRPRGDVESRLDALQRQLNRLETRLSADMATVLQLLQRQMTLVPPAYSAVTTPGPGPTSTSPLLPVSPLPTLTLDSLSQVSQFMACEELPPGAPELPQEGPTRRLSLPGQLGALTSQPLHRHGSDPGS
Method: The hERG current measurement was performed at an automated patch clamp system following the procedure described in R. E. Martin et al. in Bio org.

CYP2C9 = target: T4, CYP2C9 (Homo sapiens, UniProt P11712); assay: CYP inhibition assay, CYP2C9; type: in vitro ADME; conditions: pooled human liver microsomes, diclofenac substrate; read-out: CYP IC50 2C9
T4 construct: 0.2 mg/ml pooled human liver microsomes; from tissue; host or cells: pooled human liver microsomes
T4 sequence (P11712 whole entry): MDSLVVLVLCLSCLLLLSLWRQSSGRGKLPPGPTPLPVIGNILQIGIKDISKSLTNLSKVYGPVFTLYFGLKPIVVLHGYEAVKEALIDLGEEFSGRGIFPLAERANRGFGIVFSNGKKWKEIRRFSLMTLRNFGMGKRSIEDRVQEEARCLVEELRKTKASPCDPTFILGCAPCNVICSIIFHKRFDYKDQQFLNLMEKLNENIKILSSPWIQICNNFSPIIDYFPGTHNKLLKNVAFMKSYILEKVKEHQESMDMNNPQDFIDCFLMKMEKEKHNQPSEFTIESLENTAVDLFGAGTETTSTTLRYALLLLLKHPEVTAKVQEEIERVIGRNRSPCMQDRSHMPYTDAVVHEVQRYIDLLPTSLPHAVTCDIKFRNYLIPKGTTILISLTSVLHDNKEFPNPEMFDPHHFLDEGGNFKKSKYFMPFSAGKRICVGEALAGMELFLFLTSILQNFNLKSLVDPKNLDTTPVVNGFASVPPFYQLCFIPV
Method: as §1

T1 sequence (P08684 whole entry): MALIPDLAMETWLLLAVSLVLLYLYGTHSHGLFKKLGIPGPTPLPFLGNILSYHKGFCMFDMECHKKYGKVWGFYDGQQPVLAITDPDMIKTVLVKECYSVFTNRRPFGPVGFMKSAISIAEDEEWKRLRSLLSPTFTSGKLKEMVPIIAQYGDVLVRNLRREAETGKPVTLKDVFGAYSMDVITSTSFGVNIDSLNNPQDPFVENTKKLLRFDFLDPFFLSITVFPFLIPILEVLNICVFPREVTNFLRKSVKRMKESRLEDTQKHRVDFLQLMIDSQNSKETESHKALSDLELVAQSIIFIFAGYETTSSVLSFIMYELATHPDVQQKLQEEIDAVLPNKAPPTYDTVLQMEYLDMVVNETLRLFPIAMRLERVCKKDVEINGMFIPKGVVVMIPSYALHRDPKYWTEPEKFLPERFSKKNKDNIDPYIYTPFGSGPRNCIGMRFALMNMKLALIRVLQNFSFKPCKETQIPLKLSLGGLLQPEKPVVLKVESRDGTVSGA

Structure (SMILES)	IC50 (CYP3A4)	efflux ratio at 2 h (P-gp (human MDR1))	response vs control in vivo at 10 mg/kg (Aβ40 in brain)	IC50 (CYP2D6)	hERG Inhibition @ 10 μM (hERG)	IC50 (CYP2C9)
C[C@@]1(c2cc(NC(=O)c3ccc(Cl)cn3)ccc2F)C[C@@H](C(F)(F)F)OC(N)=N1 [Example 2, N-(3-((4S,6S)-2-amino-4-methyl-6-(trifluoromethyl)-5,6-dihydro-4H-1,3-oxazin-4-yl)-4-fluorophenyl)-5-chloropicolinamide]	> 50 µM	1.82	93%	3.9 µM	84	> 50 µM
C[C@@]1(c2cc(NC(=O)c3ccc(OCF)cn3)ccc2F)C[C@@H](C(F)(F)F)OC(N)=N1 [Example 11, N-(3-((4S,6S)-2-Amino-4-methyl-6-(trifluoromethyl)-5,6-dihydro-4H-1,3-oxazin-4-yl)-4-fluorophenyl)-5-(fluoromethoxy)picolinamide]	> 50 µM	2.3	87%	1.6 µM	26	> 50 µM
CC#CCOc1cnc(C(=O)Nc2ccc(F)c([C@]3(C)C[C@@H](C(F)(F)F)OC(N)=N3)c2)cn1 [Example 22, N-(3-((4S,6S)-2-Amino-4-methyl-6-(trifluoromethyl)-5,6-dihydro-4H-1,3-oxazin-4-yl)-4-fluorophenyl)-5-(but-2-ynyloxy)pyrazine-2-carboxamide]	> 50 µM	2.63	83%	13 µM		33 µM
NC1=N[C@](CF)(c2cc(NC(=O)c3ccc(OCF)cn3)ccc2F)C[C@@H](C(F)(F)F)O1 [Example 35, N-(3-((4S,6S)-2-Amino-4-(fluoromethyl)-6-(trifluoromethyl)-5,6-dihydro-4H-1,3-oxazin-4-yl)-4-fluorophenyl)-5-(fluoromethoxy)picolinamide]	> 50 µM	1.5	74%	5.2 µM	26	33 µM
